Data from patent US20220160734A1, “TREATMENT OF FIBROIDS WITH VITAMIN D AND AN AGENT SUCH AS EPIGALLOCATECHIN GALLATE (EGCG)” (LO.LI. PHARMA S.R.L., priority 2019, published 2022).

Experiments:
[1] = tested on: fibronectin release in cultured fibroblasts; assay: Fibronectin release in TGF-β1-stimulated fibroblasts, western blot; format: cell-based, human; settings: Phase I; 18 days culture, 24 h TGF-β1 10 ng/ml, then 24 h treatment; vitamin D3 0.005 μg/ml, EGCG 0.03 mg/ml; FIG. 1
Source text: Anti-fibrotic properties of epigallocatechin gallate (EGCG) and vitamin D3 (alone or in combination) have been preliminary tested in human normal fibroblasts in 2D cultures. Human normal fibroblasts used in this experiment are Primary cell cultures. To discard any effect on fibroblast viability, proliferation and apoptosis were also investigated. Fibroblasts culture: DMEM, 10% FBS, 1% L-Glu, 1% Pen/strep for 18 days; Fibroblasts were allowed to grow in the above fibroblast culture for 18 days until reaching 50% confluence. Then, the fibrotic process was fostered by adding 10 ng/ml TGF-β1 (Peprotech, cat no. #100-21-10UG). […]
(§1) Fibronectin and collagen release were both measured in western blot for assessing the anti-fibrotic effect. […]
(§2) Fibronectin and collagen release from fibroblasts were analyzed at 24 hours after addition of EGCG or vitamin D3 in previously stimulated fibroblast, as described above. […]
Data are reported in FIGS. 3 A-B and 4 A-B and expressed as fold-decrease of OD-Units in respect to the control value, which was obtained for fibroblasts after 24 hours of stimulation with TGF-β1 (e.g. a decrease of 50% between two measurements would be referred to a “half-fold change”). Fold change is a measure describing how much a quantity changes between an original and a subsequent measurement. […]

[2] = tested on: collagen release in cultured fibroblasts; assay: Collagen release in TGF-β1-stimulated fibroblasts, western blot; format: cell-based, human; settings: Phase I, 18 days culture, 24 h TGF-β1 10 ng/ml, then 24 h treatment, vitamin D3 0.005 μg/ml, EGCG 0.03 mg/ml, FIG. 2
Source text: (§3) Anti-fibrotic properties of epigallocatechin gallate (EGCG) and vitamin D3 (alone or in combination) have been preliminary tested in human normal fibroblasts in 2D cultures. Human normal fibroblasts used in this experiment are Primary cell cultures. To discard any effect on fibroblast viability, proliferation and apoptosis were also investigated. Fibroblasts culture: DMEM, 10% FBS, 1% L-Glu, 1% Pen/strep for 18 days; Fibroblasts were allowed to grow in the above fibroblast culture for 18 days until reaching 50% confluence. Then, the fibrotic process was fostered by adding 10 ng/ml TGF-β1 (Peprotech, cat no. #100-21-10UG). 24 hours after addition of TGF-β1, fibroblasts were thoroughly washed with PBS, fresh fibroblast culture medium and the below formulas were added. Fibroblasts were then allowed to grow for an additional 24 hours.
Vitamin D3 (cholecalciferol, CAS-No. 67-97-0): 0.005 μg/ml in DMSO. Vitamin D3 was dissolved in DMSO and after that further dilutions were made in PBS. Essentially, the cells receive the same “dose” of DMSO, this allows a clean comparison of the test. In this case, DMSO 1:10000 was used;
EGCG (GREEN TEA DRY EXTRACT 95% POLYPHENOLS; CAS-No. 84650-60-2): 0.03 mg/ml in H2O;
combined treatment: EGCG 0.03 mg/ml+vitamin D3 0.005 μg/ml;
control: vehicle only (DMSO);
as §1, §2
Data are reported in FIGS. 3 A-B and 4 A-B and expressed as fold-decrease of OD-Units in respect to the control value, which was obtained for fibroblasts after 24 hours of stimulation with TGF-β1 (e.g. a decrease of 50% between two measurements would be referred to a “half-fold change”). Fold change is a measure describing how much a quantity changes between an original and a subsequent measurement. It is defined as the ratio between the two quantities; for quantities A and B, then the fold change of B with respect to A is B/A.

[3] = tested on: human normal fibroblasts; assay: Fibroblast proliferation, viability and morphology; settings: Phase I; vitamin D3 0.005 μg/ml, EGCG 0.03 mg/ml; data not shown
Source text: as §3

[4] = tested on: human uterine fibroid cells; settings: in vitro; cited from earlier work
[5] = tested on: uterine fibroids; settings: animal models; cited from earlier work
[6] = tested on: uterine fibroids; settings: women with uterine fibroids after treatment with EGCG; cited from earlier work
[7] = tested on: uterine fibroid tumors; settings: mice; cited from earlier work

Structure (SMILES)	fibronectin release (production) [1]	collagen release (production) [2]	collagen release (production) ([2]; listed as Vitamin D)	fibroblasts proliferation rate [3]	fibroblasts viability [3]	uterine fibroid cell proliferation [4]	size of uterine fibroids / uterine fibroid tumor growth [5]	reduction in the total fibroid volume [6] [%]	apoptosis in human uterine fibroid cells [4]	volume of uterine fibroid tumors [7]
C=C1CC[C@H](O)C/C1=C/C=C1\CCC[C@]2(C)[C@@H]([C@H](C)CCCC(C)C)CC[C@@H]12 [Vitamin D3, cholecalciferol]	slightly increases	significantly reducing	reduces	does not significantly modify	does not significantly modify	reduces	reduces			
O=C(O[C@@H]1Cc2c(O)cc(O)cc2O[C@@H]1c1cc(O)c(O)c(O)c1)c1cc(O)c(O)c(O)c1 [EGCG, epigallocatechin gallate]	significantly reduces	significantly reduces		does not significantly modify	does not significantly modify	inhibits proliferation		32.6	induces apoptosis	reduces the volume
C=C1/C(=C\C=C2/CCC[C@]3(C)[C@@H]([C@H](C)CCCC(C)(C)O)CC[C@@H]23)C[C@@H](O)C[C@@H]1O [1,25-dihydroxyvitamin D]						inhibits	decreases the size			
